Source: patent US20140155406A1, “4-IMIDAZOPYRIDAZIN-1-YL-BENZAMIDES AND 4-IMIDAZOTRIAZIN-1-YL-BENZAMIDES BTK INHIBITORS” (priority 2011, published 2014)

Experiments:
Btk enzyme (His-Btk) = molecular target: T1, Btk enzyme (His-Btk) (Homo sapiens, UniProt Q06187); experiment: Btk enzyme activity, IMAP fluorescence polarization assay; assay type: biochemical; conditions: 60 min pre-incubation, 5 μM ATP (Km)
T1 construct: His; purchased Millipore 14-552
Text: Inhibition of kinase activity can be measured using the Immobilized Metal Assay for Phosphochemicals (IMAP) assay. IMAP is a homogeneous fluorescence polarization (FP) assay based on affinity capture of phosphorylated peptide substrates. IMAP uses fluorescein-labeled peptide substrates that, upon phosphorylation by a protein kinase, bind to so-called IMAP nanoparticles, which are derivatized with trivalent metal complexes. Binding causes a change in the rate of the molecular motion of the peptide, and results in an increase in the FP value observed for the fluorescein label attached to the substrate peptide (Gaudet et al. A homogeneous fluorescence polarization assay adaptable for a range of protein serine/threonine and tyrosine kinases. J. Biomol. Screen (2003) 8, 164-175).
Btk enzyme activity is measured using the IMAP (immobilized metal ion affinity-based fluorescence polarization) assay as outlined below.
Btk enzyme (His-Btk (Millipore catalog#14-552), is diluted to 0.4 U/mL in KR buffer (10 mM Tris-HCl, 10 mM MgCl2, 0.01% Tween-20, 0.05% NaN3, 1 mM DTT, 2 mM MnCl2, pH 7.2).
Serial dilution log 10 from 2 mM to 63.2 nM of test compounds are made in 100% DMSO. The dilutions in DMSO are then diluted 50-fold in KR-buffer. Final compound concentration range in the assay from 10 μM to 0.316 nM.
5 μL/well of test compound in KR buffer (final DMSO concentration in the assay is 1%) is mixed with 5 μl/well of 0.4 U/mL Btk enzyme (final concentration in the assay is 0.1 U/mL). Test compounds and Btk enzyme are pre-incubated 60 minutes at room temperature, before adding 5 μL/well of 200 nM Fluorescin labeled substrate peptide (Blk/Lyntide substrate, e.g. #R7188/#R7233, Molecular Devices) in KR-buffer. Final peptide substrate concentration in assay is 50 nM. The kinase assay is started by adding 5 μL/well of 20 μM ATP in KR-buffer (final ATP concentration is 5 μM ATP, Km ATP in Btk IMAP assay). Following incubation for 2 h at room temperature the enzyme reaction is stopped by adding 40 μL/well IMAP Progressive Binding Solution (according to suppliers (Molecular Devices) protocol using 75% 1× buffer A and 25% 1× buffer B with 1:600 Progressive Binding Solution). After 60 min incubation at room temperature in the dark the FP signal is read. Fluorescence at 535 nm is measured using parallel and perpendicular filters to determine differences in rotation due to binding of the phosphorylated substrate peptide to the beads. Values are calculated as percentage of the difference in readout (ΔmPi) of the controls with and without ATP. EC50 values are determined by curve fitting of the experimental results using Activity Base.

Lyn enzyme = molecular target: T2, Lyn enzyme (Homo sapiens, UniProt P07948); experiment: Lyn enzyme activity, IMAP fluorescence polarization assay; assay type: biochemical; conditions: 60 min pre-incubation, 2 μM ATP (Km)
T2 construct: purchased Millipore 14-510
Method: Lyn enzyme activity is measured using the IMAP (immobilized metal ion affinity-based fluorescence polarization) assay as outlined below.
Lyn enzyme (Millipore catalog#14-510), is diluted to 250 mU/mL in KR buffer (10 mM Tris-HCl, 10 mM MgCl2, 0.01% Tween-20, 0.05% NaN3, 1 mM DTT, 2 mM MnCl2, pH 7.2). Serial dilution log 10 from 2 mM to 63.2 nM of test compounds are made in 100% DMSO. The dilutions in DMSO are then diluted 50-fold in KR-buffer of which 5 μl is used in the assay, leading to a final compound concentration range in the assay from 10 μM to 0.316 nM. 5 μL/well of test compound in KR buffer (final DMSO concentration in the assay is 1%) is mixed with 5 μl/well of 250 mU/mL Lyn enzyme (final concentration in the assay is 62.5 mU/mL). Test compounds and Lyn enzyme are pre-incubated 60 minutes at room temperature, before adding 5 μL/well of 400 nM Fluorescin labeled substrate peptide (Blk/Lyntide substrate, e.g. #R7188/#R7233, Molecular Devices) in KR-buffer. Final peptide substrate concentration in assay is 100 nM. The kinase assay is started by adding 5 μL/well of 8 μM ATP in KR-buffer (final ATP concentration is 2 μM ATP, Km ATP in Lyn IMAP assay). Following incubation for 2 h at room temperature the enzyme reaction is stopped by adding 40 μL/well IMAP Progressive Binding Solution (according to suppliers (Molecular Devices) protocol using 75% 1× buffer A and 25% 1× buffer B with 1:600 Progressive Binding Solution). After 60 min incubation at room temperature in the dark the FP signal is read. Fluorescence at 535 nm is measured using parallel and perpendicular filters to determine differences in rotation due to binding of the phosphorylated substrate peptide to the beads. Values are calculated as percentage of the difference in readout (ΔmPi) of the controls with and without ATP. EC50 values are determined by curve fitting of the experimental results using Activity Base.

T2 sequence (P07948 whole entry): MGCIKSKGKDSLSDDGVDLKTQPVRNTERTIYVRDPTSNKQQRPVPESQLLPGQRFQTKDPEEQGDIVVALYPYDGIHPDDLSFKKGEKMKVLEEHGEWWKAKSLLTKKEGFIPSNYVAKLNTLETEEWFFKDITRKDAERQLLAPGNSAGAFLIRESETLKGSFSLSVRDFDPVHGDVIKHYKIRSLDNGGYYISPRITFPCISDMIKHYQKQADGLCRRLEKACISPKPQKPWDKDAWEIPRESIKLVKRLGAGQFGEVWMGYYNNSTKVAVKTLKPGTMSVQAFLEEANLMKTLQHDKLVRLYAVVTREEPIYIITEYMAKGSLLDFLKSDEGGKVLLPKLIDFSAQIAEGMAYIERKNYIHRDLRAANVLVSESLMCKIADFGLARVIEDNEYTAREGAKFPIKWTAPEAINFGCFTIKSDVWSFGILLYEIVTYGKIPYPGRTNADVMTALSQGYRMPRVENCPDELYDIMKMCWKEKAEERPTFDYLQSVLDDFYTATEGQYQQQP
T1 sequence (Q06187 whole entry): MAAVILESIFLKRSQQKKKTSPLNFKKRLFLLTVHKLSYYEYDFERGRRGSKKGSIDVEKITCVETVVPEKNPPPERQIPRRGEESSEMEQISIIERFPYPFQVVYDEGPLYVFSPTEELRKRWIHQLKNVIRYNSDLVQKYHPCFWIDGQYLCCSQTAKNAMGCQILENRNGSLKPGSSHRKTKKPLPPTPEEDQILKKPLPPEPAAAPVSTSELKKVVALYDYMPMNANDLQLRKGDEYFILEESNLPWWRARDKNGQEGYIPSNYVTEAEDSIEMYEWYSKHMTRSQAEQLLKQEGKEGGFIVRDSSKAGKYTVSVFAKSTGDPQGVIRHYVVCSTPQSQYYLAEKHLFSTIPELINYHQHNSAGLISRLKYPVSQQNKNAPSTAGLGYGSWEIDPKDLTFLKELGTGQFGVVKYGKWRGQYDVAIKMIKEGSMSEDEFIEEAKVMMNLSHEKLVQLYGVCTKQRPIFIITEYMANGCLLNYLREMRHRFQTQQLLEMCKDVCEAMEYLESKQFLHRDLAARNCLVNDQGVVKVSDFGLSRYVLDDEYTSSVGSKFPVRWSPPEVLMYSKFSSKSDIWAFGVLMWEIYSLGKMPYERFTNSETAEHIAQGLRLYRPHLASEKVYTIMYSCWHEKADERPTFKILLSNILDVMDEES

Row | Compound | EC50 (Btk enzyme (His-Btk); bin bounds given in nM) [nM] | EC50 (Lyn enzyme) [µM] | EC50 (Btk enzyme (His-Btk); bounds given in μM) [nM]
1 | C=CC(=O)N1CCCC[C@H]1c1nc(-c2ccc(C(=O)Nc3cc(CCC)ccn3)cc2)c2c(C)nccn12 [Example 2, (S)-4-(3-(1-Acryloylpiperidin-2-yl)-8-methylimidazo[1,5-a]pyrazin-1-yl)-N-(4-propylpyridin-2-yl)benzamide] | < 10 | ≥ 1 | –
2 | CCCc1ccnc(NC(=O)c2ccc(-c3nc([C@@H]4CCCCN4C(=O)/C=C/CN(C)C)n4ccnc(C)c34)cc2)c1 [Example 3, (S,E)-4-(3-(1-(4-(Dimethylamino)but-2-enoyl)piperidin-2-yl)-8-methylimidazo[1,5-a]pyrazin-1-yl)-N-(4-propylpyridin-2-yl)benzamide] | < 10 | ≥ 1 | –
3 | C=CS(=O)(=O)N1CCCC[C@H]1c1nc(-c2ccc(C(=O)Nc3cc(CCC)ccn3)cc2)c2c(C)nccn12 [Example 4, (S)-4-(8-Methyl-3-(1-(vinylsulfonyl)piperidin-2-yl)imidazo[1,5-a]pyrazin-1-yl)-N-(4-propylpyridin-2-yl)benzamide] | < 10 | ≥ 1 | –
4 | C=CC(=O)N1CCC[C@H]1c1nc(-c2ccc(C(=O)Nc3cc(CCC)ccn3)cc2)c2c(C)nccn12 [Example 9, (S)-4-(3-(1-Acryloylpyrrolidin-2-yl)-8-methylimidazo[1,5-a]pyrazin-1-yl)-N-(4-propylpyridin-2-yl)benzamide] | < 10 | ≥ 1 | –
5 | C=CC(=O)N1CCC[C@H]1c1nc(-c2ccc(C(=O)Nc3cc(C#N)ccn3)cc2)c2c(C)nccn12 [Example 13, (S)-4-(3-(1-Acryloylpyrrolidin-2-yl)-8-methylimidazo[1,5-a]pyrazin-1-yl)-N-(4-cyanopyridin-2-yl)benzamide] | < 10 | ≥ 1 | –
6 | CC#CC(=O)N1CCC[C@H]1c1nc(-c2ccc(C(=O)Nc3cc(C)ccn3)cc2)c2c(C)nccn12 [Example 15, (S)-4-(3-(1-but-2-ynoylpyrrolidin-2-yl)-8-methylimidazo[1,5-a]pyrazin-1-yl)-N-(4-methylpyridin-2-yl)benzamide] | ≥ 100 | ≥ 1 | < 1000
7 | CCCc1ccnc(NC(=O)c2ccc(-c3nc([C@H](C)N(C)C(=O)/C=C/CN(C)C)n4ccnc(C)c34)cc2)c1 [Example 18, (S,E)-4-(3-(1-(4-(dimethylamino)-N-methylbut-2-enamido)ethyl)-8-methylimidazo[1,5-a]pyrazin-1-yl)-N-(4-propylpyridin-2-yl)benzamide] | < 10 | ≥ 1 | –
8 | C=CC(=O)N1CCC[C@H]1c1nc(-c2ccc(C(=O)Nc3ccccn3)cc2)c2c(C)nccn12 [Example 19, (S)-4-(3-(1-acryloylpyrrolidin-2-yl)-8-methylimidazo[1,5-a]pyrazin-1-yl)-N-(pyridin-2-yl)benzamide] | < 10 | ≥ 1 | –
9 | Cc1nccn2c([C@@H]3CCCCN3C(=O)/C=C/CN3CCCC3)nc(-c3ccc(C(=O)Nc4cc(C(F)(F)F)ccn4)cc3)c12 [Example 21, (S,E)-4-(8-methyl-3-(1-(4-(pyrrolidin-1-yl)but-2-enoyl)piperidin-2-yl)imidazo[1,5-a]pyrazin-1-yl)-N-(4-(trifluoromethyl)pyridin-2-yl)benzamide] | < 10 | ≥ 1 | –
10 | CC#CC(=O)N1CCCC[C@H]1c1nc(-c2ccc(C(=O)Nc3cc(CCC)ccn3)cc2)c2c(C)nccn12 [Example 22, (S)-4-(3-(1-but-2-ynoylpiperidin-2-yl)-8-methylimidazo[1,5-a]pyrazin-1-yl)-N-(4-propylpyridin-2-yl)benzamide] | < 10 | ≥ 1 | –
11 | CC#CC(=O)N(C)[C@@H](C)c1nc(-c2ccc(C(=O)Nc3cc(CCC)ccn3)cc2)c2c(C)nccn12 [Example 24, (S)-4-(8-methyl-3-(1-(N-methylbut-2-ynamido)ethyl)imidazo[1,5-a]pyrazin-1-yl)-N-(4-propylpyridin-2-yl)benzamide] | < 10 | ≥ 1 | –
12 | Cc1nccn2c([C@@H]3CCCN3C(=O)/C=C/CN3CCCC3)nc(-c3ccc(C(=O)Nc4ccccn4)cc3)c12 [Example 25, (S,E)-4-(8-methyl-3-(1-(4-(pyrrolidin-1-yl)but-2-enoyl)pyrrolidin-2-yl)imidazo[1,5-a]pyrazin-1-yl)-N-(pyridin-2-yl)benzamide] | ≥ 100 | ≥ 1 | < 1000
13 | CCCc1ccnc(NC(=O)c2ccc(-c3nc([C@H](C)NC(=O)/C=C/CN(C)C)n4ccnc(C)c34)cc2)c1 [Example 28, (S,E)-4-(3-(1-(4-(dimethylamino)but-2-enamido)ethyl)-8-methylimidazo[1,5-a]pyrazin-1-yl)-N-(4-propylpyridin-2-yl)benzamide] | < 10 | ≥ 1 | –

More lines, now with the values ahead:

Row | EC50 (Btk enzyme (His-Btk); bin bounds given in nM) [nM] | EC50 (Lyn enzyme) [µM] | EC50 (Btk enzyme (His-Btk); bounds given in μM) [nM] | Compound
14 | < 10 | ≥ 1 | – | COC/C=C/C(=O)N[C@@H](C)c1nc(-c2ccc(C(=O)Nc3cc(C(F)(F)F)ccn3)cc2)c2c(C)nccn12 [Example 6, (S,E)-4-(3-(1-(4-Methoxybut-2-enamido)ethyl)-8-methylimidazo[1,5-a]pyrazin-1-yl)-N-(4-(trifluoromethyl)pyridin-2-yl)benzamide]
15 | < 10 | ≥ 1 | – | CC#CC(=O)N[C@@H](C)c1nc(-c2ccc(C(=O)Nc3cc(C(F)(F)F)ccn3)cc2)c2c(C)nccn12 [Example 7, (S)-4-(3-(1-But-2-ynamidoethyl)-8-methylimidazo[1,5-a]pyrazin-1-yl)-N-(4-(trifluoromethyl)pyridin-2-yl)benzamide]
16 | < 10 | ≥ 1 | – | C=CC(=O)N[C@@H](C)c1nc(-c2ccc(C(=O)Nc3cc(C(F)(F)F)ccn3)cc2)c2c(C)nccn12 [Example 8, (S)-4-(3-(1-Acrylamidoethyl)-8-methylimidazo[1,5-a]pyrazin-1-yl)-N-(4-(trifluoromethyl)pyridin-2-yl)benzamide]
17 | < 10 | ≥ 1 | – | C=CC(=O)N1CCC[C@H]1c1nc(-c2ccc(C(=O)Nc3cc(C(F)(F)F)ccn3)cc2)c2c(C)nccn12 [Example 10, (S)-4-(3-(1-Acryloylpyrrolidin-2-yl)-8-methylimidazo[1,5-a]pyrazin-1-yl)-N-(4-(trifluoromethyl)pyridin-2-yl)benzamide]
18 | < 10 | ≥ 1 | – | C=CC(=O)N[C@@H](C)c1nc(-c2ccc(C(=O)Nc3cc(CCC)ccn3)cc2)c2c(C)nccn12 [Example 23, (S)-4-(3-(1-acrylamidoethyl)-8-methylimidazo[1,5-a]pyrazin-1-yl)-N-(4-propylpyridin-2-yl)benzamide]
19 | < 10 | ≥ 1 | – | C=CC(=O)N1CCCC[C@H]1c1nc(-c2ccc(C(=O)Nc3cc(C(F)(F)F)ccn3)cc2)c2c(C)nccn12 [Example 27, (S)-4-(3-(1-acryloylpiperidin-2-yl)-8-methylimidazo[1,5-a]pyrazin-1-yl)-N-(4-(trifluoromethyl)pyridin-2-yl)benzamide]
